We go through 6 molecules from PMC2586329 (Biochemistry, 2008).

The structures appear in SMILES notation. Like-named read-outs stand apart in the source and are kept apart here.

Assay [1] relates to full-length EcDos. The settings on record: pH 8; cited from earlier work.
Assay [2] has as its system ferrous EcDosH. The settings on record: cited from earlier work.
Assay [3] has as its target ferric EcDosH (Escherichia coli, UniProt P76129).
For assay [4], the system named is EcDos. The settings on record: cited from earlier work.
The test system of assay [5] is EcDosH. The settings on record: cited from earlier work.

ferric EcDosH, sequence (P76129 1-139): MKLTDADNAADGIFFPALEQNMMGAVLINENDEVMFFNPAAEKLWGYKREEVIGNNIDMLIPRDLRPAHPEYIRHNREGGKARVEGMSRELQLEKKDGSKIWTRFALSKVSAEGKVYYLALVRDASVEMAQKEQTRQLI

In the case of `[C-]#[O+]` [CO], the association rate constant in assay [1] was 810 M⁻¹ s⁻¹; in assay [2] (pH 7) it was 1100 M⁻¹ s⁻¹; in assay [2] (pH 8), 7800 M⁻¹ s⁻¹.
On to `OO` [H2O2, hydrogen peroxide], for which the “effect on the heme at high hydrogen peroxide concentrations” value in assay [3] is on record as “oxidative degradation of the heme is observed”.
For the molecule `O=O` [O2], the association rate constant in assay [1] was 1900 M⁻¹ s⁻¹; in assay [2] (pH 7) it was 2600 M⁻¹ s⁻¹; in assay [2] (pH 8), 31000 M⁻¹ s⁻¹.
As for `[N-]=[N+]=[N-]` [azide], the affinity for binding entry in assay [4] and in assay [5] was “very low affinities” throughout.
In the case of `F` [fluoride], the affinity for binding result in assay [4] and in assay [5] was “very low affinities” each time.
Turning to `c1c[nH]cn1` [imidazole], the affinity for binding entry in assay [4] and in assay [5] was “very low affinities” in each case.
